Experiment [1] has as its system Mus musculus. Nature of the experiment: Compound was tested for in vivo activity against 1x 10ex6 CFU of Candida albicans C-43 infected mice at dose of 10 mg/kg; Inactive. It is filed as functional, organism-based. Also on record: dose 10 mg/kg.
For experiment [2], the system named is Candida albicans. The experiment in a line: Tested for inhibition of yeast to mycelial transformation against Candida albicans C-43 at concentration of <0.03 ug/mL at pH 7.0; Active. It is filed as functional, organism-based.
Experiment [3] relates to Candida albicans. Nature of the experiment: Tested for inhibition of yeast to mycelial transformation against six strains of Candida albicans at concentration of <0.03 ug/mL at pH 7.0; Active. It is filed as functional, organism-based.
Experiment [4] has as its system Candida albicans. The experiment in a line: Tested for inhibition of yeast to mycelial transformation against Candida stellatoidea at concentration of <0.03 ug/mL at pH 7.0; Active. It is filed as functional, organism-based.
Experiment [5] deals with Candida parapsilosis. Nature of the experiment: Minimum inhibitory concentration against two strains of Candida parapsilosis. Conditions: Lodderomyces parapsilosis. It is filed as functional.
Experiment [6] deals with Mus musculus. The experiment in a line: Geometri mean CFUs(log 10) for Candida albicans infected mice treated with 50 mg/kg of compound. It is filed as functional.
The test system of experiment [7] is Mus musculus. The experiment in a line: Compound was tested for percent survival against Candida albicans C-43 at 50 mg/kg (iv) in mice. It is filed as functional.
Experiment [8] relates to Candida albicans. The experiment in a line: Tested for inhibition of yeast to mycelial transformation against Candida albicans C-43 at concentration of 16->64 ug/mL at pH 7.0; Slightly active. It is filed as functional, organism-based.
For experiment [9], the system named is Candida albicans. The experiment in a line: Tested for inhibition of yeast to mycelial transformation against six strains of Candida albicans at concentration of 16->64 ug/mL at pH 7.0; Slightly active. It is filed as functional, organism-based.
Experiment [10] relates to Candida albicans. The experiment in a line: Tested for inhibition of yeast to mycelial transformation against Candida stellatoidea at concentration of 16->64 ug/mL at pH 7.0; Slightly active. It is filed as functional, organism-based.
For experiment [11], the system named is Candida parapsilosis. The experiment in a line: Minimum inhibitory concentration against two strains of C. parapsilosis; Inactive. It is filed as functional, organism-based.
Experiment [12] has as its system Candida albicans. Nature of the experiment: Tested for inhibition of yaest to mycelial transformation against Candida albicans C-43 at concentration of <0.03 ug/mL at pH 7.0; Active. It is filed as functional, organism-based.
Experiment [13] deals with Mus musculus. The experiment in a line: Compound was tested for in vivo activity against Candida albicans C-43 in mice. It is filed as functional.
The test system of experiment [14] is Mus musculus. Nature of the experiment: Compound was tested for in vivo activity against Candida albicans C-43 in mice at dose of 10 mg/kg; Inactive. It is filed as functional, organism-based. Also on record: dose 10 mg/kg.
The subject of experiment [15] is Candida albicans. Nature of the experiment: In vitro inhibition of yeast to mycelial transformation against Candida albicans C-43 at concentration of <0.03 ug/mL at pH 7.0; Active. It is filed as functional, organism-based.
Experiment [16] deals with Candida albicans. The experiment in a line: In vitro inhibition of yeast to mycelial transformation against six strains of Candida albicans at concentration of <0.03 ug/mL at pH 7.0; Active. It is filed as functional, organism-based.
Experiment [17] has as its system Candida albicans. Nature of the experiment: In vitro inhibition of yeast to mycelial transformation against Candida stellatoidea at concentration of <0.03 ug/mL at pH 7.0; Active. It is filed as functional, organism-based.

In brackets after ≈: the same amount, converted by molar mass. Activity calls are given as the source filed them. The rule behind the calls is not given here.

This is an account of results in ChEMBL document CHEMBL1127894, “The synthesis of 2,2,24- trisubstituted oxetanes as new azole antifungal agents” (1994).

Turning to `CC(C)N1CCN(c2ccc(OC[C@H]3C[C@@](Cn4cncn4)(c4ccc(Cl)cc4Cl)O3)cc2)CC1` (relative stereo), the result in experiment [1] was inactive.

In the case of `CC(C)N1CCN(c2ccc(OC[C@H]3CC[C@](Cn4cncn4)(c4ccc(Cl)cc4Cl)O3)cc2)CC1`, the outcome in [2], in [3] and in experiment [4] was Active. Moreover, the MIC (as a rule, the lowest concentration that inhibits growth of the organism) in experiment [5] is 0.5 µg/mL (≈ 0.943 µM). Moreover, in experiment [1], the result was inactive. The same compound yielded an Activity in experiment [6] of 4.3. For the same compound, the survival at 50 mg/kg in experiment [7] amounted to 100%.

For `CC(C)N1CCN(c2ccc(OC[C@@H]3C[C@@](Cn4cncn4)(c4ccc(Cl)cc4Cl)O3)cc2)CC1` (relative stereo), in [1], the result was inactive.

In turn, `CC(C)N1CCN(c2ccc(OC[C@@H]3C[C@@](Cn4cncn4)(c4ccc(Cl)cc4Cl)O3)cc2)CC1` (racemic) [listing 1 of 2 here] displayed an MIC in experiment [5] of 32 µg/mL (≈ 62 µM).

In the case of `CC(C)N1CCN(c2ccc(OC[C@H]3C[C@@](Cn4cncn4)(c4ccc(Cl)cc4Cl)O3)cc2)CC1` (racemic), the Activity result in experiment [8], in [9] and in experiment [10] was “Weak activity” in each case. Besides, the MIC result in experiment [11] is “inactive”.

With `CC(C)N1CCN(c2ccc(OC[C@H](O)C[C@@](O)(Cn3cncn3)c3ccc(Cl)cc3Cl)cc2)CC1`, the result in [12], in experiment [3] and in [4] was Active. Moreover, in experiment [5], the MIC was determined as 32 µg/mL (≈ 59.9 µM). In addition, the Activity in [13] is 4.2. The outcome in experiment [14] was inactive. The survival at 50 mg/kg in experiment [7] was determined as 100%.

Take `CC(C)N1CCN(c2ccc(OC[C@@H](O)C[C@@](O)(Cn3cncn3)c3ccc(Cl)cc3Cl)cc2)CC1`: the outcome in experiment [2], in experiment [3] and in experiment [4] was Active. The MIC in [5] was found to be 32 µg/mL (≈ 59.9 µM). The compound also came in with an Activity in [13] of 4.4. Moreover, the outcome in [14] was inactive. Also, the survival at 50 mg/kg in experiment [7] was determined as 100%.

Take `CC(C)N1CCN(c2ccc(OC[C@@H]3C[C@@](Cn4cncn4)(c4ccc(Cl)cc4Cl)O3)cc2)CC1` (racemic) [listing 2 of 2 here]: the outcome in experiment [15], in experiment [16] and in experiment [17] was Active.
